Several values for one entry are separate records, joined by “and”; a condition that tells them apart may be missing. Equal values may be shown once. Entries after “also recorded” stand apart in the source; their conditions may differ. Read-outs that look alike come from different tables or passages of the source.
Tests used:
[1] = Serum carnitine levels in young mice fed L-carnitine; type: in vivo, mouse (BALB/c); conditions: mouse, po, 50 mg/kg/day, 50 mg/kg/day oral
Method: (§1) The present invention is further explained by the following examples which should not be construed by way of limiting the scope of the present invention. In the following examples, serum carnitine levels were determined by the method of R. Parvin et al., Anal. Biochem., vol. 79 (1979) pp. 190-201. Serum IGF-1 concentrations were measured by immunoradiometric assay, for example, by IRMA Kit available from Diagnostic Systems Laboratories, Inc., Webster, Texas. Serum osteocalcin levels were measured according to the method of Grunaberg et al., Meth. Enzymology, vol 107 (1984) 516, and which is embodied in an osteocalcin kit available from Biomedical Technologies, Inc., Stoughton, Mass. All mice used in the animal studies were BALB/c strain which is commercially available.
Similar tests were performed on six young mice, i.e., 2 months 5 months of age. One group (n=3) was fed a diet with L-carnitine supplementation for three months, the other (n=3) was fed normal, unsupplemented feed (control). Each mouse in the test group was fed a daily oral dose of L-carnitine of about 50 mg/kg of body weight. Mouse blood was sampled prior to beginning of the trial (pretreatment) i.e., at two months of age, and at 5 months of age, and was evaluated for serum osteocalcin and carnitine levels.

[2] = system: serum osteocalcin; test: Comparative effects of L-carnitine, acetyl carnitine and γ-butyrobetaine on serum osteocalcin in adult mice; type: in vivo, mouse (BALB/c male); conditions: for Osteocalcin: actual intake estimated about half
Method: as §1
Tests were performed to compare the effects on serum osteocalcin of diet supplementation with L-carnitine, its precursor, γ-butyrobetaine (available from Aldrich Chemical Co.) and one of its metabolites, acetylcarnitine (available from Life Science Resources, Milwaukee, Wis. 53223). Twenty adult mice, i.e., three months of age, (BALB/c male mice) were divided into seven groups. Each of the groups was fed diets as indicated hereinbelow for twelve weeks. One group (n=3) was fed a diet with L-carnitine supplementation at a dose of 50 mg/kg of body weight each day, while the second group (n=3) was fed L-carnitine at a daily dose of about 100 mg/kg. The third group (n=2) was fed a diet with acetylcarnitine supplementation at a daily dose of 50 mg/kg, while the fourth group (n=3) was fed a daily dose of 100 mg/kg of this compound. The fifth group (n=2) was fed a daily dose of 50 mg/kg of γ-butyrobetaine supplementation,while the sixth group was fed a daily dose of 100 mg/kg of γ-butyrobetaine. The seventh group (n=4) was fed normal, unsupplemented feed (control). Mouse blood was sampled prior to beginning of the trial (pretreatment), at six weeks, and at the end of the trial (twelve weeks). The samples were evaluated for serum osteocalcin levels at six and twelve weeks. Total carnitine was determined at twelve weeks.

[3] = Serum carnitine after oral L-carnitine, double-blind study in patients over 60 (Example 5); type: in vivo, human; conditions: human, serum, po, 2 g/day
Method: as §1
(§2) Nineteen patients (over age 60) were enrolled in a preliminary double-blindstudy to establish the effect of oral L-carnitine treatment on serum IGF-1 and osteocalcin levels. Baseline, i.e., pretreatment, levels of serum IGF-1, osteocalcin and carnitine were measured by known methods. The patients were divided into two groups, control (n=9; subjects 001-009 in Table 5 below) and treatment (n=10; subjects 010-019 in Table 5 below). The treatment group received a daily dosage of 2 g of L-carnitine orally, self-administered, in four separate doses of two 250 mg tablets taken four times per day, for twelve weeks. The control group were given placebo, e.g., simple sugar. Serum samples were drawn every four weeks, and serum carnitine, IGF-1 and osteocalcin were determined.

[4] = system: serum carnitine; test: as above; type: in vivo, human; conditions: individual subjects 010-019, 2 g/day oral
Method: as §1, §2

[5] = system: serum osteocalcin; test: Osteocalcin response to L-carnitine in aged mice; type: in vivo, mouse (BALB/c)
Method: as §1
Forty aged mice were separated into two groups. After an initial acclimatizing period of one week, one group was fed a diet with L-carnitine supplementation for six weeks and the other was fed normal, unsupplemented feed (control). […] The average daily food for each mouse was determined by weighing the food initially placed in the food bin and weighing the remaining food. […] Mouse blood was sampled prior to beginning of the trial (pretreatment), at the end of three weeks, and at six weeks (posttreatment), and was evaluated for serum osteocalcin and carnitine levels.

Which results are given for `C[N+](C)(C)C[C@H](O)CC(=O)[O-]` [L-carnitine]?
concentration at 2190 h ([1]; read-out: Serum Carnitine, Free): 60.2 µM; concentration at 2190 h ([1]; read-out: Serum Carnitine, Total): 84.2 µM; significance of difference in osteocalcin vs control (p, student's t test) ([2]; 50 mg/kg/day): < 0.01; Osteocalcin ([2]; 50 mg/kg/day, 6 wks): 151 ng/mL and 151 ± 4 ng/mL; Osteocalcin ([2]; 50 mg/kg/day, 12 wks): 153 ng/mL; significance of difference in osteocalcin vs control (p, student's t test) ([2]; 100 mg/kg/day): < 0.05; Osteocalcin ([2]; 100 mg/kg/day, 6 wks): 199 ng/mL and 199 ± 7 ng/mL; Osteocalcin ([2]; 100 mg/kg/day, 12 wks): 115 ng/mL; effect on osteocalcin ([2]; adult mice, 50 and 100 mg/kg/day): stimulate osteocalcin production in adult mice; also recorded: maintained osteocalcin blood levels; concentration at 1344 h ([3]; individual subjects 010-019, 2 g/day oral, 8 weeks, read-out: Serum carnitine, Free): 65.4 µM; concentration at 1344 h ([3]; individual subjects 010-019, 2 g/day oral, 8 weeks, read-out: Serum carnitine, Total): 88 µM; concentration at 2016 h ([3]; individual subjects 010-019, 2 g/day oral, 12 weeks, read-out: Serum carnitine, Free): 72.6 µM; concentration at 2016 h ([3]; individual subjects 010-019, 2 g/day oral, 12 weeks, read-out: Serum carnitine, Total): 101 µM; concentration at 1344 h ([3]; treatment group average, eight weeks, read-out: average total carnitine): 75.6 µM; concentration at 672 h ([3]; treatment group average, four weeks, read-out: average total carnitine): 78.4 µM; concentration at 2016 h ([3]; treatment group average, twelve weeks, read-out: average total carnitine): 81.5 µM; concentration ([4]; 4 weeks, 40320 min, read-out: Serum carnitine, Free): 54.4 µM and 61.6 µM and 36.6 µM and 66.6 µM and 67.4 µM and 52 µM and 67.2 µM and 40.4 µM and 61.2 µM and 85 µM; concentration ([4]; 4 weeks, 40320 min, read-out: Serum carnitine, Total): 71.6 µM and 72.5 µM and 52.4 µM and 80.3 µM and 120 µM and 67 µM and 84.4 µM and 54.3 µM and 73 µM and 108 µM; concentration ([4]; 8 weeks, 80640 min, read-out: Serum carnitine, Free): 58.6 µM and 52.6 µM and 65.2 µM and 74.6 µM and 57 µM and 67.4 µM and 39.4 µM and 61.2 µM; concentration ([4]; 8 weeks, 80640 min, read-out: Serum carnitine, Total): 76.6 µM and 64.8 µM and 72.5 µM and 91.7 µM and 67.9 µM and 83.4 µM and 51.5 µM and 83.9 µM; concentration ([4]; 12 weeks, 120960 min, read-out: Serum carnitine, Free): 61 µM and 49.6 µM and 70 µM and 55.8 µM and 69.6 µM; concentration ([4]; 12 weeks, 120960 min, read-out: Serum carnitine, Total): 79.3 µM and 62 µM and 75.7 µM and 70.2 µM and 94.4 µM; Osteocalcin ([5]; aged mice (18 months), 50 mg/kg/day oral in feed, six weeks): 29.6 ± 3.6 ng/mL; significance of difference in osteocalcin, treated vs control (p, student's t test) ([5]; aged mice, 50 mg/kg/day): ≤ 0.05

Source: patent publication US5240961A, “Method of treating reduced insulin-like growth factor and bone loss associated with aging” (priority 1992, dated 1993)
